The test system of data set [1] is Wistar rats (DNCB-induced atopic dermatitis). Kind of data set: Ear thickness (edema) in DNCB-induced atopic dermatitis rat model. The format is in vivo. The protocol: It is similar to the indications for use of hydrocortisone, which was used as a positive control in the study. Urolitin A was obtained by synthesis according to Bialonska et al. (Bialonska et al., 2009) or purchased from Sigma-Aldrich. The ointment containing urolithin A was prepared by emulsifying the weighed substance into a solid vehicle (white petrolatum) using an unguator. Wistar rats aged 5-6 weeks (at the start of the experiment) kept under standard conditions with free access to feed and water were used for the tests. The animals were divided into 5 groups, 8 individuals in each group. To prepare 2,4-dinitrochlorobenzene (DNCB) composition inducing inflammation, DNCB was dissolved in 70% ethanol to a final concentration of 1.5% (w/v). Therapeutic composition was an ointment based on white petrolatum with 0.2% or 1.0% urolithin A added. The control ointment was white petrolatum without addition of urolithin A. The induction of chronic atopic dermatitis involved local 9-fold infiltration with 60 μl 1.5% 2,4-dinitrochlorobenzene (DNCB) on each (external and internal) surface of the right ear over 3 weeks (3 times a week). Negative control was the right ear of rats without induction inflammation. Treatment of atopic dermatitis with 0.2% or 1.0% urolithin composition and white petrolatum (control) or 1.0% hydrocortisone composition (positive control) was started eight days after sensitization—one day before the fourth application of DNCB. Ointments with appropriate for given group drug added were applied in a total volume of about 20 μl to each ear surface one day before and 6 hours after each DNCB application (for a period of 3 weeks). The negative control group consisted of rats without induced inflammation and treated with white petrolatum in a regimen analogous to the composition of urolithin A or hydrocortisone. Ear thickness was assessed using an electronic mini caliper the day before inflammation was induced (day 0) and then on days 4 and 8 prior to treatment and on days 4, 8, 12, 16, […] of therapy with urolithin A composition (on days 12, 16, 20, 24, 28 and 32 after inflammation inducing, respectively). The experimental results obtained were analyzed using the Statistica 7.1 program (StatSoft, Inc., Tulsa, OK, USA) and presented as mean values±SE. Statistical significance was set at P≤0.05. The results with established normal distribution in the D'Agostin and Pearson test were prepared using two- or three-factor analysis of variance (ANOVA). Parametric post-hoc analysis for individual time points was performed using the Bonferroni test.

Data set [2] has as its system carrageenan-induced paw edema in mice. As to conditions: oral administration one hour after induction of edema, next 24 hours; cited from earlier work.
The subject of another data set is TNF-alpha. The data set is described as follows: TNF-alpha production by macrophages from human peripheral blood monocytes (ELISA). The following applies: 40 μM; LPS 100 ng/mL, 24 h; FIG. 16. It counts as cell-based. On the technique in general: An ELISA detects its analyte on a solid surface through an enzyme-linked reagent.
For data set [3], the system named is Wistar rats (DNCB-induced atopic dermatitis). Kind of data set: Peripheral blood morphology in DNCB-induced atopic dermatitis rat model. It counts as in vivo. As for the experimental part: Wistar rats aged 5-6 weeks (at the start of the experiment) kept under standard conditions with free access to feed and water were used for the tests. The animals were divided into 5 groups, 8 individuals in each group. To prepare 2,4-dinitrochlorobenzene (DNCB) composition inducing inflammation, DNCB was dissolved in 70% ethanol to a final concentration of 1.5% (w/v). Therapeutic composition was an ointment based on white petrolatum with 0.2% or 1.0% urolithin A added. The control ointment was white petrolatum without addition of urolithin A.
The induction of chronic atopic dermatitis involved local 9-fold infiltration with 60 μl 1.5% 2,4-dinitrochlorobenzene (DNCB) on each (external and internal) surface of the right ear over 3 weeks (3 times a week). Negative control was the right ear of rats without induction inflammation.
Treatment of atopic dermatitis with 0.2% or 1.0% urolithin composition and white petrolatum (control) or 1.0% hydrocortisone composition (positive control) was started eight days after sensitization—one day before the fourth application of DNCB. Ointments with appropriate for given group drug added were applied in a total volume of about 20 μl to each ear surface one day before and 6 hours after each DNCB application (for a period of 3 weeks). The negative control group consisted of rats without induced inflammation and treated with white petrolatum in a regimen analogous to the composition of urolithin A or hydrocortisone.
2 mL blood samples were drawn into syringes (containing heparin as an anticoagulant) from the heart under general anesthesia (isoflurane) on day 32 of the experiment. The test was conducted using the DIATRON automated hematology analyzer. Peripheral blood analysis included the assessment of morphotic elements in blood: erythrocytes, leukocytes and thrombocytes and determination of the number and percentage of different types of leukocytes—WBC as well as values of erythrocyte indicators: hemoglobin (HGB), hematocrit (HCT), mean corpuscular volume (MCV), mean corpuscular hemoglobin (MCH) and mean corpuscular hemoglobin concentration (MCHC).
The experimental results obtained were analyzed using the Statistica 7.1 program (StatSoft, Inc., Tulsa, OK, USA) and presented as mean values±SE. Statistical significance was set at P≤0.05. The results with established normal distribution in the D'Agostin and Pearson test were prepared using two- or three-factor analysis of variance (ANOVA). Parametric post-hoc analysis for individual time points was performed using the Bonferroni test.

For data set [4] the following is noted: animal model; oral and intravenous administration; cited from earlier work.
Data set [5] deals with NHDF fibroblasts (human normal skin fibroblasts). The following applies: comparative studies by the inventors. The protocol: NHDF fibroblasts (human normal skin fibroblasts) were cultured in the DMEM medium supplemented with 10% FBS and a mixture of antibiotics—penicillin and streptomycin at 37° C., 5% CO2. […] After incubation with the compounds, the cells were washed twice with warm medium. The effect on cell viability was assessed using a standard MTT test.

Where [6] appears, read: day 32, 1% hydrocortisone, urolithin A 0.2 and 1%.

SMILES strings stand for the structures.

Experimental for TNF-alpha: Monocytes were isolated from peripheral human blood by a standard method using dextran sedimentation and Ficoll Hypaque gradient centrifugation. After isolation, monocytes were suspended in RPMI 1640 medium supplemented with L-glutamine, HEPES, streptomycin, amphotericin and gentamicin, and 20% autologous serum. Cell culture was carried out under these conditions for 7 days. […] After 24h, TNF-alpha level in the medium was determined using the immunochemical ELISA method (BD biosciences). The obtained results of experiments on in vitro models were analyzed using the Statistica 13 program (StatSoft, Inc., Tulsa, OK, USA) and presented as mean values±SEM. Statistical significance was set at P≤0.05. The results with established normal distribution in the D'Agostin and Pearson test were prepared using analysis of variance (ANOVA). Parametric post-hoc analysis was performed using Dunnett's test.

Turning to `O=c1oc2cc(O)ccc2c2ccc(O)cc12` [urolithin A], in data set [1] (0.2% vs 1%, p<0.05), the “Ear edema, comparison of urolithin doses with each other” value is “more effective at a concentration of 1%”. Besides, in data set [1] (later treatment period (from day 12 to 28 of treatment), dose 0.2 and 1%, p<0.01), the “Time profile of anti-edema effect, urolithin A vs. hydrocortisone” value was “more effective in the later treatment period”. In addition, in data set [1] (topical ointment in white petrolatum, urolithin A 0.2 and 1.0%, hydrocortisone 1%, urolithin A p<0.001, hydrocortisone p<0.01), the “Ear edema (ear thickness) after local therapy” value is “reduced”. Besides, the “Anti-inflammatory (ear edema) effect compared to hydrocortisone 1%” value in data set [1] (urolithin A 0.2% ointment) is reported as “absence of significantly greater efficiency”; in data set [1] (urolithin A 1% ointment, p<0.05) it was “significantly greater anti-inflammatory effect compared to hydrocortisone”. For the same molecule, the “Ear edema reduction, urolithin vs. hydrocortisone (2-factor ANOVA)” value in data set [1] (urolithin A (both doses) vs. 1% hydrocortisone, p<0.05) is given as “stronger”. For the same molecule, the “Carrageenan-induced paw edema size” value in data set [2] is on record as “significantly reduced its size”. Further, in the data set with TNF-alpha, the “Inhibition of TNF-alpha production by macrophages from human peripheral blood monocytes” value was “most active compound”. The “WBC (leukocyte) level” value in data set [3] (0.2% composition, day 32, vs petrolatum, p<0.05) is “reduced WBC values similar to 1% hydrocortisone”; in data set [3] (1% composition, day 32, vs petrolatum, hydrocortisone p<0.05, urolithin A p<0.01), “decrease in the WBC level”. Moreover, the “Final WBC values compared to negative control (without atopic dermatitis)” value in data set [3] (1% hydrocortisone, urolithin A 0.2 and 1%) is “remained at a higher level compared to negative control groups”. Further, the “WBC growth inhibition compared to 1% hydrocortisone” value in data set [3] (1% urolithin A) was “did not result in a significantly greater effect of WBC growth inhibition”. Further, in data set [3] (day 32), the “MPV (fl), PDW (fl), PDWcv (%)” value is on record as “did not change”. For the same molecule, the “RBC, HGB, HCT, MCV” value in data set [3] (day 32) was “no changes”. For the same molecule, the “Concentration of hemoglobin in erythrocytes (MCH and MCHC)” value in data set [3] (day 32, 1% hydrocortisone (p<0.05), urolithin A 0.2 and 1.0%) is recorded as “this effect was not seen”. Besides, in data set [3] (setting [6]), the Monocyte population entry is on record as “significantly inhibited the increase in the level of all three leukocyte populations”. For the same molecule, the Neutrophil population result in data set [3] (setting [6]) is “significantly inhibited the increase in the level of all three leukocyte populations”. The Lymphocyte level result in data set [3] (day 32, 1% hydrocortisone, urolithin A 0.2 and 1%, vs petrolatum) was “significantly inhibited the increase in the level of all three leukocyte populations”. Further, the Toxicity entry in data set [4] is “no toxicity”. In data set [5], the “Antiproliferative activity on human skin fibroblast cells” value was “neither urolithin A, nor 8-acetyl-urolithin A, nor 3-acetyl-urolithin A showed antiproliferative activity”.

These data come from patent US12329738B2, “Urolithin A and a composition containing same for external use in inflammations of various etiologies” (WARSZAWSKI UNIWERSYTET MEDYCZNY, priority 2018, dated 2025).
